Measured values published in ChEMBL document CHEMBL1944510, “Potent galloyl-based selective modulators targeting multidrug resistance associated protein 1 and P-glycoprotein” (J Med Chem, 2012).

target: ATP-dependent translocase ABCB1 (Homo sapiens, UniProt P08183); assay: Inhibition of human MDR1 expressed in MDCK cells assessed as calcein AM accumulation after 30 mins by fluorescence assay; type: cell-based; settings: read-out: IC50
Sequence (P08183 whole entry): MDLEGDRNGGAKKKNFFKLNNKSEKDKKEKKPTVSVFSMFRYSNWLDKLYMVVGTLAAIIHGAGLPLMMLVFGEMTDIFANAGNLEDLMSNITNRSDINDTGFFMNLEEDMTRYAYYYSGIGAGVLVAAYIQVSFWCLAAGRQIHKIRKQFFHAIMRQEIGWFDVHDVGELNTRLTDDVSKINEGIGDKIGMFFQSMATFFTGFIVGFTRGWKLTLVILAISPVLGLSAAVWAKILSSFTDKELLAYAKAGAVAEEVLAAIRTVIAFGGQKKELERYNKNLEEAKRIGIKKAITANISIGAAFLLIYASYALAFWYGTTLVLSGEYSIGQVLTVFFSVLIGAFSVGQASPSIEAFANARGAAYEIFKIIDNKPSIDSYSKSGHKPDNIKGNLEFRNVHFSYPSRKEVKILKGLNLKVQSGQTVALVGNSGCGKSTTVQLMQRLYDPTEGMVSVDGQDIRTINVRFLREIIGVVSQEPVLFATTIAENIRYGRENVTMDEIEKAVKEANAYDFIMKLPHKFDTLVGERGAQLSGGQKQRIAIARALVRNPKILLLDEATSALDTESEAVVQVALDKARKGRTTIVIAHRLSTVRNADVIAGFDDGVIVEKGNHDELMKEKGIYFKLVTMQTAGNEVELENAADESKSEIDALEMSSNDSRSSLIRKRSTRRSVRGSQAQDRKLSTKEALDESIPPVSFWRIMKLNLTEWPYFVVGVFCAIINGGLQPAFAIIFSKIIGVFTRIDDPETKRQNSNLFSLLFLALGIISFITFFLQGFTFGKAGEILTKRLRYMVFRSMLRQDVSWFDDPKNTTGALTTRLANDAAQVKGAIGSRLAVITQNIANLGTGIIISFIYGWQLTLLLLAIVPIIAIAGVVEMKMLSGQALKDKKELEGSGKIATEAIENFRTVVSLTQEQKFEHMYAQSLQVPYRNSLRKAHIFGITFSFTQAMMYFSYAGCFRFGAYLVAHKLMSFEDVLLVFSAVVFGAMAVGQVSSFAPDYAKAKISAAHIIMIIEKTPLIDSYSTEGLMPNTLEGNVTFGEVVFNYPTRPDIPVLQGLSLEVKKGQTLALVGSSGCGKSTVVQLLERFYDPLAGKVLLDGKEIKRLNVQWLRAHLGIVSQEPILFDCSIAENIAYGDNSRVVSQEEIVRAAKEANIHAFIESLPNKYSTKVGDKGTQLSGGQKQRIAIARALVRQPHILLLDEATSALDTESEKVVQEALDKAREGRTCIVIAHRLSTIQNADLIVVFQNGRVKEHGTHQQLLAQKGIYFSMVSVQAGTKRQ

IC50 [µM] | Structure (SMILES)
7.2 | COc1cc(C(=O)Nc2ccc(-c3ccccc3)cc2N)cc(OC)c1OC
> 100 | COc1cc(C(=O)Nc2ccc(-c3ccc(O)c(O)c3)cc2[N+](=O)[O-])cc(O)c1O
65 | COc1ccc(NC(=O)c2cc(O)c(O)c(OC)c2)c([N+](=O)[O-])c1
31.7 | COc1ccc(CCN(C)CCCC(C#N)(c2ccc(O)c(O)c2)C(C)C)cc1OC (racemic)
> 100 | COc1cc(NC(=O)c2ccc(-c3ccccc3)cc2[N+](=O)[O-])cc(O)c1O
> 100 | COc1cc(C(=O)Nc2ccc(Br)cc2[N+](=O)[O-])cc(OC)c1OC
0.57 | COc1cc(C(=O)Nc2cc(-c3ccccc3)ccc2[N+](=O)[O-])cc(OC)c1OC
3.5 | COc1ccc(C(=O)Nc2ccc(-c3ccccc3)cc2[N+](=O)[O-])cc1O
> 100 | O=C(Nc1ccc(-c2ccccc2)cc1[N+](=O)[O-])c1cc(O)c(O)c(O)c1
32.5 | COc1cc(C(=O)Nc2ccc(-c3cccc([N+](=O)[O-])c3)cc2)cc(O)c1O
72 | O=C(Nc1ccc(-c2ccccc2)cc1[N+](=O)[O-])c1cc(O)cc(O)c1
> 100 | COc1cc(C(=O)Nc2ccc(-c3ccccc3)cc2NC(C)=O)cc(O)c1O
6.6 | COc1cc(OC)cc(C(=O)Nc2ccc(-c3ccccc3)cc2[N+](=O)[O-])c1
6.8 | COc1cc(C(=O)Nc2ccc(-c3cccnc3)cc2[N+](=O)[O-])cc(OC)c1OC
3.1 | COc1cc(C(=O)Nc2ccc(-c3cc(O)c(O)c(OC)c3)cc2[N+](=O)[O-])cc(O)c1O
1.9 | COc1cc(C(=O)Nc2ccc(-c3ccccc3)cc2NC(C)=O)cc(OC)c1OC
1.3 | COc1ccc(C(=O)Nc2ccc(-c3ccccc3)cc2[N+](=O)[O-])cc1OC
34 | COc1cc(C(=O)Nc2ccc(-c3ccc[n+](C)c3)cc2[N+](=O)[O-])cc(OC)c1OC
24.3 | COc1cc(C(=O)Nc2ccc(-c3cc(OC)c(OC)c(OC)c3)cc2[N+](=O)[O-])cc(OC)c1OC
38.4 | COc1cc(C(=O)Nc2ccc(Br)cc2[N+](=O)[O-])cc(O)c1O
> 100 | COc1cc(C(=O)Nc2ccc(-c3ccccc3)cc2[N+](=O)[O-])cc(OC)c1OC
> 100 | O=C(Nc1ccc(Br)cc1[N+](=O)[O-])c1cc(O)c(O)c(O)c1

The next lines start with the compound.

Structure (SMILES) | IC50 [µM]
COc1cc(C(=O)Nc2ccc(-c3ccc4c(c3)OCO4)cc2[N+](=O)[O-])cc(OC)c1OC | 0.2
COC1=CC(C(=O)Nc2ccc(-c3ccccc3)cc2[N+](=O)[O-])=CC(=O)C1=O | > 100
COc1cc(CNc2ccc(-c3ccccc3)cc2[N+](=O)[O-])cc(O)c1O | 72
COc1cc(C(=O)Nc2ccc(-c3ccccc3)cc2F)cc(OC)c1OC | 1.4
COc1cc(CNc2ccc(-c3ccccc3)cc2[N+](=O)[O-])cc(OC)c1OC | 1.5
COc1cc(C(=O)Nc2ccc(-c3ccccc3)cc2)cc(O)c1O | > 100
COc1cc(C(=O)Nc2ccc(-c3cccc([N+](=O)[O-])c3)cc2[N+](=O)[O-])cc(OC)c1OC | 0.4
COc1cc(C(=O)Nc2ccc(-c3cccc(C(C)=O)c3)cc2[N+](=O)[O-])cc(O)c1O | 9.1
COc1cc(C(=O)Nc2ccc(-c3cc(F)cc(F)c3)cc2[N+](=O)[O-])cc(O)c1O | 16.8
COc1cc(C(=O)Nc2ccc(-c3ccccc3)cc2F)cc(O)c1O | 14.1
COc1cc(C(=O)Nc2ccc(-c3cccs3)cc2[N+](=O)[O-])cc(OC)c1OC | 17.3
COc1cc(C(=O)Nc2cc(-c3ccccc3)ccc2[N+](=O)[O-])cc(O)c1O | 40.2
COc1cc(C(=O)Nc2ccc(-c3ccccc3)cc2N)cc(O)c1O | > 100
COc1cc(C(=O)Nc2ccc(Br)cc2)cc(OC)c1OC | 20
COc1cc(C(=O)Nc2ccc(-c3ccccc3)cc2[N+](=O)[O-])cc(O)c1O | 67
COc1cc(C(=O)Nc2ccc(-c3cccc(C(C)=O)c3)cc2[N+](=O)[O-])cc(OC)c1OC | 0.6
COc1cc(NC(=O)c2ccc(-c3ccccc3)cc2[N+](=O)[O-])cc(OC)c1OC | 2
COc1ccc(NC(=O)c2cc(OC)c(OC)c(OC)c2)c([N+](=O)[O-])c1 | > 100
COc1cc(C(=O)Nc2ccc(-c3ccccc3)cc2)cc(OC)c1OC | > 100

same assay, conditions: read-out: pIC50 (converted)

IC50 [µM] | Structure (SMILES)
0.57 | COc1cc(C(=O)Nc2cc(-c3ccccc3)ccc2[N+](=O)[O-])cc(OC)c1OC
24.3 | COc1cc(C(=O)Nc2ccc(-c3cc(OC)c(OC)c(OC)c3)cc2[N+](=O)[O-])cc(OC)c1OC

The remaining lines, values behind:

Structure (SMILES) | IC50 [µM]
COc1cc(C(=O)Nc2ccc(-c3ccc4c(c3)OCO4)cc2[N+](=O)[O-])cc(OC)c1OC | 0.2
COc1cc(C(=O)Nc2ccc(-c3cccc([N+](=O)[O-])c3)cc2[N+](=O)[O-])cc(OC)c1OC | > 1
COc1cc(C(=O)Nc2ccc(-c3cccc(C(C)=O)c3)cc2[N+](=O)[O-])cc(OC)c1OC | 0.6

tested on: not listed separately; assay: Chemical stability of the compound at 1 to 100 uM after 1 hr by ESI-MS analysis; type: physicochemical; settings: not given

Stability | Structure (SMILES)
Stable | O=C(Nc1ccc(-c2ccccc2)cc1[N+](=O)[O-])c1cc(O)c(O)c(O)c1
Stable | COc1cc(C(=O)Nc2ccc(-c3ccccc3)cc2[N+](=O)[O-])cc(O)c1O
Stable | COc1cc(C(=O)Nc2ccc(-c3ccccc3)cc2[N+](=O)[O-])cc(OC)c1OC
